From paper PMC11891075, “TRIM66-HP1γ remodels the chromatin through phase separation” (Biophysics Reports, 2025) come the findings set out here.

Residues, ends and D or L forms follow the SMILES beside them.

The subject of assay [1] is condensates formed by mEGFP-TRIM66 and mCherry-HP1γ in U2OS cells. Description: Live-cell imaging of condensates before and after 1,6-hexanediol. It counts as cell-based. To be noted: 10% 1,6-hexanediol for 5 min, 10 independent fields from one cell dish. As to the method:
U2OS cells and HeLa cells were cultured in high-glucose DMEM supplemented with 10% fetal bovine serum and 1% penicillin-streptomycin at 37 °C in a humidified incubator containing 5% CO2. Following the manufacturer's instructions, cells were transfected with plasmid DNA using Lipofectamine 3000 (Thermo Fisher Scientific).
Genes encoding human TRIM66 or its constructs were cloned into the pmEGFP-C3 (Clontech) vector with an N-terminal mEGFP tag or the Flag vector with an N-terminal Flag tag. Genes encoding human HP1γ or HP1γ^L172A/W174A were cloned into the pcDNA3.1 vector with an N-terminal mCherry tag.
U2OS cells were cultured on 35-mm glass bottom dishes (Wuxi NEST Biotechnology Co., Ltd) coated with poly-D-lysine (Sigma-Aldrich). L-15 medium without phenol red (Thermo Fisher Scientific) was used during live-cell imaging to maintain a suitable environment for cell growth, and the temperature was kept at approximately 37 °C. Images were obtained with a Nikon Ti fluorescent inverted microscope with a 100× 1.4 NA objective; an XY Piezo Z stage (Applied Scientific Instrumentation); a spinning disk confocal unit (Yokogawa); and an electron multiplier CCD camera (Andor) controlled by IQ3 live-cell imaging software (Andor). Images collected with this system were 16-bit and consisted of 512 × 512 pixels, and the pixel size was 0.12 μm.

For another assay, the target named is T1, HP1γ-CSD (WT) (Homo sapiens, UniProt Q13185).
T1 construct: HP1γ CSD (110–176aa) and TRIM66 PxVxL motif peptide(856–868aa), mixed at a molar ratio of 1:1.2; made in house
Description: Isothermal titration calorimetry (ITC), HP1γ-CSD wild type. It counts as binding. To be noted: 20 °C, 20 mmol/L Tris-HCl, 150 mmol/L NaCl, pH 7.5, Fig. 2F. Here is the method: (§1) HP1γ_CSD (residues 110–176) was amplified by PCR from the human brain cDNA library and cloned into the pET-28a(+) expression vector (Novagen), contained an N-terminal 6× His tag and a tobacco etch virus (TEV) protease cleavage site. All mutants of HP1 were generated using a MutantBEST kit (Takara) and confirmed by DNA sequencing. All the proteins were expressed in Escherichia coli BL21 (DE3) cells (Novagen) cultured in LB medium at 37 °C to OD600 = 0.8, then shifted to 16 °C and induced with 0.5 mmol/L isopropyl β-D-1-thiogakactopyranoside (IPTG) for 24 h. Bacterial pellets were resuspended in Buffer A (20 mmol/L Tris-HCl, 500 mmol/L NaCl, pH 7.5) and lysed by sonication on ice. Then, soluble proteins were purified with a Ni^2+-chelating column (Cytiva Life Sciences) and a Superdex 75 column (Cytiva Life Sciences). After being cleaved by TEV protease overnight at 4 °C to remove the 6× His tag, the purified protein was concentrated to ∼10 mg/mL in Buffer B (20 mmol/L Tris-HCl, 150 mmol/L NaCl, pH 7.5) and stored at –80 °C. […]
(§2) Isothermal titration calorimetry (ITC) assays were performed using a MicroCal PEAQ-ITC calorimeter (Cytiva Life Sciences), and all experiments were carried out at 20 °C. […] The concentrations of the proteins were determined spectrophotometrically. […]

The target of the next assay is T2, HP1γ-CSD^W174A (Homo sapiens, UniProt Q13185, W174A).
T2 construct: HP1γ CSD (110–176aa) and TRIM66 PxVxL motif peptide(856–868aa), mixed at a molar ratio of 1:1.2; His6 (N); made in house
Description: ITC, HP1γ-CSD W174A mutant. It counts as binding. Particulars: 20 °C, 20 mmol/L Tris-HCl, 150 mmol/L NaCl, pH 7.5, Fig. 2F. As to the method: as §1, §2

The target of the next assay is T3, HP1γ-CSD^L172A (Homo sapiens, UniProt Q13185, L172A).
T3 construct: HP1γ CSD (110–176aa) and TRIM66 PxVxL motif peptide(856–868aa), mixed at a molar ratio of 1:1.2; His6 (N); made in house
Description: ITC, HP1γ-CSD L172A mutant. It counts as binding. Particulars: 20 °C, 20 mmol/L Tris-HCl, 150 mmol/L NaCl, pH 7.5, Fig. 2F. Here is the method: as §1, §2

For a further assay, the target named is T4, HP1γ-CSD^I165A (Homo sapiens, UniProt Q13185, I165A).
T4 construct: HP1γ CSD (110–176aa) and TRIM66 PxVxL motif peptide(856–868aa), mixed at a molar ratio of 1:1.2; His6 (N); made in house
Description: ITC, HP1γ-CSD I165A mutant (monomeric). It counts as binding. Particulars: 20 °C, 20 mmol/L Tris-HCl, 150 mmol/L NaCl, pH 7.5, Fig. 2F. As to the method: as §1, §2

The target of the next assay is T5, HP1γ-CSD^D131A (Homo sapiens, UniProt Q13185, D131A).
T5 construct: HP1γ CSD (110–176aa) and TRIM66 PxVxL motif peptide(856–868aa), mixed at a molar ratio of 1:1.2; His6 (N); made in house
Description: ITC, HP1γ-CSD D131A mutant. It counts as binding. Particulars: 20 °C, 20 mmol/L Tris-HCl, 150 mmol/L NaCl, pH 7.5, Fig. 2G. Here is the method: as §1, §2

In a further assay the target is T6, HP1γ-CSD^R171A (Homo sapiens, UniProt Q13185, R171A).
T6 construct: HP1γ CSD (110–176aa) and TRIM66 PxVxL motif peptide(856–868aa), mixed at a molar ratio of 1:1.2; His6 (N); made in house
Description: ITC, HP1γ-CSD R171A mutant. It counts as binding. Particulars: 20 °C, 20 mmol/L Tris-HCl, 150 mmol/L NaCl, pH 7.5, Fig. 2G. Here is the method: as §1, §2

For assay [2], the target named is HP1γ chromo shadow domain (CSD), residues 110-176 (human) (UniProt Q13185). Description: ITC; MicroCal PEAQ-ITC, 20 °C, Buffer B (20 mmol/L Tris-HCl, 150 mmol/L NaCl, pH 7.5); TRIM66 peptide titrated into HP1γ-CSD.
Assay [3] has as its system HP1γ and nuclear extract (NE). Description: GST pull-down assay. It counts as binding, human. Particulars: glutathione-Sepharose, 20 mmol/L Tris, 150 mmol/L NaCl, 1 mmol/L DTT, pH 7.5, 6 h at 4 °C; SDS-PAGE and western blot. As to the method:
The gene for human TRIM66 full-length (residues 1–1050) was purchased from Life Technologies. All the DNA fragments for the human TRIM66 (residues 820–909, 840–909) were amplified by PCR. The proteins were cloned into a modified pGEX4T-1vector with a GST tag and TEV protease cleavage site. The proteins were expressed in Escherichia coli BL21 (DE3) cells and induced with 0.5 mmol/L IPTG for 24 h at 16 °C. The protein was purified by GST column (Cytiva Life Sciences), followed by TEV protease cleavage and size-exclusion chromatography on a Hiload 16/60 Superdex 200 column (Cytiva Life Sciences).
Nuclear extracts (NEs) were prepared as described with slight modifications. HeLa cells (1 × 10^8 cells/mL) were suspended with 4 mL of Buffer A comprising 0.5 mmol/L EDTA, 2 mmol/L MgCl2, 0.1% (v/v) protease inhibitor (PI) (Nakalai Tesque, Japan), 2 mmol/L β-mercaptoethanol, 10 mmol/L Tris–HCl, pH 7.8, and centrifuged at 1500 g for 2 min at 4 °C. […] The concentrations of NEs were determined by DNA concentrations calculated from the absorbance at 260 nm.
The GST alone control, GST-tagged protein (TRIM66^820–909) was bound to glutathione-Sepharose beads (Cytiva Life Sciences) in a buffer of 20 mmol/L Tris, 200 mmol/L NaCl, and 1 mmol/L DTT at pH 7.5, and incubated at 4 °C for 4 h. […] The proteins captured by beads were eluted and analyzed by SDS-PAGE and western blot.

Chain of HP1γ chromo shadow domain (CSD), residues 110-176 (human) (Q13185 110-176): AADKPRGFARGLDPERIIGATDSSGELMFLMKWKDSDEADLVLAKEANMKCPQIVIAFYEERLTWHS
T6 sequence (Q13185 110-176 R171A): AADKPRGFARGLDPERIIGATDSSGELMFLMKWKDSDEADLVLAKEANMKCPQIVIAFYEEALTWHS
T5 sequence (Q13185 110-176 D131A): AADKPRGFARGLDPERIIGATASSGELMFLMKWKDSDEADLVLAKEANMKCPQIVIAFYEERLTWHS
T2 sequence (Q13185 110-176 W174A): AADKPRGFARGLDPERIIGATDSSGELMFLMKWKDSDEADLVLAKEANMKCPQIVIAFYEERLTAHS
T1 sequence (Q13185 110-176): as the sequence (Q13185 110-176) above
T4 sequence (Q13185 110-176 I165A): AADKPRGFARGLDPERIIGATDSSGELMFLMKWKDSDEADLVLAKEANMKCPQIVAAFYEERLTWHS
T3 sequence (Q13185 110-176 L172A): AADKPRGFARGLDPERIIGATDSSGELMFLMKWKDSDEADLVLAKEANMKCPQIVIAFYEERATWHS

As for `OCCCCCCO` [1,6-hexanediol], the “effect on mEGFP-TRIM66 and mCherry-HP1γ condensates” value in [1] was “depolymerized and the fluorescence signal was evenly distributed in the entire nucleus”.
Consider `CC[C@H](C)[C@H](NC(=O)[C@H](CCCCN)NC(=O)[C@H](Cc1c[nH]cn1)NC(=O)[C@@H](N)CCC(=O)O)C(=O)N1CCC[C@H]1C(=O)N[C@@H](Cc1ccc(O)cc1)C(=O)N[C@H](C(=O)N[C@@H](CCCNC(=N)N)C(=O)N[C@@H](CC(C)C)C(=O)N[C@@H](CCC(=O)O)C(=O)N[C@@H](CCCNC(=N)N)C(=O)N[C@@H](CC(C)C)C(=O)N[C@@H](CCCCN)C(=O)O)C(C)C` [TRIM66^856-868] (H-EHKIPYVRLERLK-OH), for which the Kd at HP1γ-CSD (WT) came to 280 ± 20 nM; at HP1γ-CSD^D131A, 1360 ± 109 nM; at HP1γ-CSD^R171A, 2050 ± 38 nM. Further, the KD result on HP1γ-CSD^W174A, at HP1γ-CSD^L172A and at HP1γ-CSD^I165A was “No binding” in each case.
For “TRIM66 PxVxL motif peptide (residues 856-868)”, in assay [2], the Kd was determined as 280 nM and the stoichiometry N (HP1γ-CSD per TRIM66 peptide (2:1)) was 2.

B1: GST-TRIM66^820-909: GST-tagged TRIM66 residues 820–909, which contains HP1γ-CSD binding motif (protein, UniProt O15016 820-909, looked up, fragment)
chain: NLISDSPQAMASLASDHPQAGPSLMSGHTQAVPSLATCPLQSIPPVSDMQPETGSSSSSGRTSGSLCPRDGADPSLENALCKMESEDSTR
modifications: GST tag
In the case of B1, in assay [3], the “complex formation with HP1γ and NE (GST pull-down)” value was “can form stable complexes”.
